The values that follow come from patent US20250270619A1, “COMPOSITIONS, KITS AND METHODS FOR DIRECT AMPLIFICATION FROM CRUDE BIOLOGICAL SAMPLES” (LIFE TECHNOLOGIES CORPORATION, priority 2021, published 2025).

The subject of the assay is SARS-Cov-2 virus particles. Put plainly: RT-qPCR screening of surfactant treatment solutions for disruption of SARS-CoV-2 virus particles. Particulars: for effect of heating the virus-surfactant mixture on Cq values (compatibility with RT-qPCR): then 92° C. for 5 minutes. For orientation: Quantitative PCR measures a nucleic acid by following its amplification.
Where [1] appears, read: Example 1, 2X concentration per surfactant, 30 minutes ambient, without heating.
The mark [2] stands for this setting: Example 2, surfactant 0.02-0.08%, absence of a heating step.

For `C[C@H](CCC(=O)NCCC[N+](C)(C)CC(O)CS(=O)(=O)[O-])[C@H]1CC[C@H]2[C@@H]3[C@H](O)C[C@@H]4C[C@H](O)CC[C@]4(C)[C@H]3C[C@H](O)[C@]12C` (stereo partly drawn) [CHAPSO, 3-[(3-cholamidopropyl)dimethylammonio]-2-hydroxy-1-propanesulfonate], the “disruption of virus particles (Cq vs virus in Tris-EDTA buffer)” value under setting [1] was “ineffective at disrupting the virus particles”. Further, the “effect of heating the virus-surfactant mixture on Cq values (compatibility with RT-qPCR)” value (“effect … (compatibility with RT-qPCR)” below) (Example 1, 30 minutes ambient) was “compatible with RT-qPCR”.
Taken in the same sequence, the figures for `CCCCCCCCCC[N+](C)(C)CCCCCCCCCC.[Br-]` [DDAB, Didecyldimethylammonium bromide] were “effective at disrupting the virus particles” and “higher average Cq values”.
Turning to `CCCCCCCCCC[N+](C)(C)C.[Br-]` [DeTAB], where the note is “Example 1, 30 minutes ambient”, the “effect … (compatibility with RT-qPCR)” value is “compatible with RT-qPCR”.
With `CCCCCCCCCCCC[N+](C)(C)C.[Br-]` [DoTAB], under setting [1], the “disruption of virus particles (Cq vs virus in Tris-EDTA buffer)” value was “ineffective at disrupting the virus particles”.
On to `CCCCCCCCCCCC[N+](C)(C)CC.[Br-]` [EDMAB, Dodecylethyldimethylammonium bromide], for which the “disruption of virus particles (Cq vs virus in Tris-EDTA buffer)” value under setting [1] is listed as “ineffective at disrupting the virus particles”. Also, the “effect … (compatibility with RT-qPCR)” value (Example 1, 30 minutes ambient) was “compatible with RT-qPCR”.
As to `CCCCCCCCCCCC[N+](C)(C)[O-]` [LDAO, N,N Dimethydodecylamine-N-oxide], the “disruption of virus particles (Cq vs virus in Tris-EDTA buffer)” value runs as follows: under setting [1], “effective at disrupting the virus particles”; under setting [2], “effective at disrupting the virus particles”. Further, the “virus disruption vs incubation time” value (Example 3, 0.02% LDAO solution (2X), 0 to 60 minutes room temperature, no heating) is on record as “rapidly disrupted the virus particles”.
Take `O=S(=O)([O-])CCC[n+]1ccccc1` [NDSB201]: the “disruption of virus particles (Cq vs virus in Tris-EDTA buffer)” value under setting [1] is reported as “ineffective at disrupting the virus particles”.
Same read-out and setting: to `CCCCCCCCCCCC(=O)OCCOCCOCCOCCOCCOCCOCCOCCOCCOCCOCCOCCOCCOCCOCCOCCOCCOCCOCCOCCOCC(OCCOCCOCCOCCOCCOCCOCCOCCOCCOCCOCCOCCOCCOCCOCCOCCOCCOCCOCCOCCO)C1OCC(OCCOCCOCCOCCOCCOCCOCCOCCOCCOCCOCCOCCOCCOCCOCCOCCOCCOCCOCCOCCO)C1OCCOCCOCCOCCOCCOCCOCCOCCOCCOCCOCCOCCOCCOCCOCCOCCOCCOCCOCCOCCO` (stereo not drawn) [Tween 20, polysorbate 20] belongs “effective at disrupting the virus particles”.
With `CCCCCCCC/C=C\CCCCCCCC(=O)OCCOCC(OCCO)C1OCC(OCCO)C1OCCO` (stereo not drawn) [Tween 80], under setting [1], the “disruption of virus particles (Cq vs virus in Tris-EDTA buffer)” value was “ineffective at disrupting the virus particles”. Besides, the “effect … (compatibility with RT-qPCR)” value (Example 1, 30 minutes ambient) is “compatible with RT-qPCR”.
On to `CCCCCCCCCCCCCC[N+](C)(C)CCCS(=O)(=O)[O-]` [Zwittergent 3-14, n-Tetradecyl-N,N-dimethyl-3-ammonio-1-propanesulfonate], for which the “disruption of virus particles (Cq vs virus in Tris-EDTA buffer)” value by setting is: under setting [1], “effective at disrupting the virus particles”; under setting [2], “effective at disrupting the virus particles”.
In the case of Benzalkonium Chloride [BZK], the “disruption of virus particles (Cq vs virus in Tris-EDTA buffer)” value under setting [1] is “effective at disrupting the virus particles”. The “effect on downstream RT-qPCR” value (Example 2, surfactant 0.08%) is listed as “inhibitory to downstream RT-qPCR”.
Turning to “N-(Alkyl C10-C16)-N,N-dimethylglycine betaine [Empigen BB]”, the “disruption of virus particles (Cq vs virus in Tris-EDTA buffer)” value under setting [1] was “effective at disrupting the virus particles”.
The same measure, in the same setting: to “nonyl phenoxypolyethoxylethanol [NP-40 alternative]” belongs “effective at disrupting the virus particles”.
